The nature of data set [1]: The drug is tested on Escherichia coli strain: BW25113 for biotransformation. The drug concentrations were measured before and after a 12-h incubation by liquid-chromatography-coupled mass spectrometry (LC–MS). The note with it: 2 µM.
A short description of data set [2]: The drug is tested on Bacteroides sp. WH2 strain: WH2 for biotransformation. The drug concentrations were measured before and after a 12-h incubation by liquid-chromatography-coupled mass spectrometry (LC–MS). The note with it: bacteroides sp. wh2, 12 h, 2 µM.
The nature of data set [3]: The drug is tested on Bacteroides ovatus strain: ATCC8483 for biotransformation. The drug concentrations were measured before and after a 12-h incubation by liquid-chromatography-coupled mass spectrometry (LC–MS). The note with it: 2 µM.
Data set [4] can be described thus: The drug is tested on Bifidobacterium longum subsp. Infantis strain: CCUG52486 for biotransformation. The drug concentrations were measured before and after a 12-h incubation by liquid-chromatography-coupled mass spectrometry (LC–MS). The note with it: 2 µM.
The nature of data set [5]: The drug is tested on Eubacterium hallii strain: DSM3353 for biotransformation. The drug concentrations were measured before and after a 12-h incubation by liquid-chromatography-coupled mass spectrometry (LC–MS). The note with it: anaerobutyricum hallii, 2 µM.
A short description of data set [6]: The drug is tested on Clostridium ramosum strain: DSM1402 for biotransformation. The drug concentrations were measured before and after a 12-h incubation by liquid-chromatography-coupled mass spectrometry (LC–MS). The note with it: thomasclavelia ramosa, 2 µM.
For data set [7] the following is noted: bifidobacterium adolescentis, 12 h, 2 µM.
Description: The drug is tested on Bifidobacterium adolescentis strain: ATCC 15703 for biotransformation. The drug concentrations were measured before and after a 12-h incubation by liquid-chromatography-coupled mass spectrometry (LC–MS)
The nature of data set [8]: The drug is tested on Ruminococcus torques strain: ATCC27756 for biotransformation. The drug concentrations were measured before and after a 12-h incubation by liquid-chromatography-coupled mass spectrometry (LC–MS). Also on record: dose 2 uM, timepoint 0 vs 12 hours. The data set is classed as ADME. The note with it: 2 µM.
The nature of data set [9]: The drug is tested on Collinsella aerofaciens strain: ATCC25986 for biotransformation. The drug concentrations were measured before and after a 12-h incubation by liquid-chromatography-coupled mass spectrometry (LC–MS). The note with it: 2 µM.
A short description of data set [10]: The drug is tested on Enterococcus faecalis strain: V583 for biotransformation. The drug concentrations were measured before and after a 12-h incubation by liquid-chromatography-coupled mass spectrometry (LC–MS). The note with it: 2 µM.
The conditions of data set [11]: victivallis vadensis, 12 h, 2 µM.
Description: The drug is tested on Victivallis vadensis strain: ATCC BAA-548 for biotransformation. The drug concentrations were measured before and after a 12-h incubation by liquid-chromatography-coupled mass spectrometry (LC–MS)
Data set [12] in a line: The drug is tested on Bifidobacterium breve strain: DSM20213 for biotransformation. The drug concentrations were measured before and after a 12-h incubation by liquid-chromatography-coupled mass spectrometry (LC–MS). The note with it: 2 µM.
The nature of data set [13]: The drug is tested on Eubacterium rectale strain: ATCC33656 for biotransformation. The drug concentrations were measured before and after a 12-h incubation by liquid-chromatography-coupled mass spectrometry (LC–MS). The note with it: agathobacter rectalis, 2 µM.
Data set [14] in a line: The drug is tested on Providencia stuartii strain: ATCC25827 for biotransformation. The drug concentrations were measured before and after a 12-h incubation by liquid-chromatography-coupled mass spectrometry (LC–MS). The note with it: 2 µM.
Data set [15] can be described thus: The drug is tested on Bacteroides xylanisolvens strain: DSM18836 for biotransformation. The drug concentrations were measured before and after a 12-h incubation by liquid-chromatography-coupled mass spectrometry (LC–MS). The note with it: 2 µM.
The conditions of data set [16]: enterocloster bolteae, 12 h, 2 µM.
Description: The drug is tested on Clostridium bolteae strain: ATCCBAA-613 for biotransformation. The drug concentrations were measured before and after a 12-h incubation by liquid-chromatography-coupled mass spectrometry (LC–MS)
Data set [17] in a line: The drug is tested on Bacteroides coprophilus strain: DSM18228 for biotransformation. The drug concentrations were measured before and after a 12-h incubation by liquid-chromatography-coupled mass spectrometry (LC–MS). The note with it: 2 µM.
The nature of data set [18]: The drug is tested on Eubacterium ventriosum strain: ATCC27560 for biotransformation. The drug concentrations were measured before and after a 12-h incubation by liquid-chromatography-coupled mass spectrometry (LC–MS). The data set is classed as ADME. Also on record: dose 2 uM, timepoint 0 vs 12 hours. The note with it: 2 µM.
Data set [19] in a line: The drug is tested on Bacteroides fragilis strain: HMW615 for biotransformation. The drug concentrations were measured before and after a 12-h incubation by liquid-chromatography-coupled mass spectrometry (LC–MS). The note with it: 2 µM.
For data set [20] the following is noted: parabacteroides johnsonii, 12 h, 2 µM.
Description: The drug is tested on Parabacteroides johnsonii strain: DSM18315 for biotransformation. The drug concentrations were measured before and after a 12-h incubation by liquid-chromatography-coupled mass spectrometry (LC–MS)

Regarding `N[C@@H](Cc1ccc(N(CCCl)CCCl)cc1)C(=O)O`, the “Bacterial Biotransformation” value in data set [1], in data set [2], in data set [3], in data set [4], in [5] and in data set [6] was “Compound metabolized” in each case. In addition, the “Bacterial Biotransformation” value in [7], in [8], in [9], in data set [10], in [11] and in [12] was “Compound metabolized” throughout. Further, the “Bacterial Biotransformation” value in data set [13], in [14], in data set [15], in data set [16], in data set [17] and in data set [18] was “Compound metabolized” each time. The “Bacterial Biotransformation” value in [19] and in data set [20] was “Compound metabolized” in each case.
On to `C[C@@H]1CC[C@H]2[C@@H](C)C(=O)O[C@@H]3O[C@@]4(C)CC[C@@H]1[C@]32OO4` [ARTEMISININ], for which the “Bacterial Biotransformation” value in data set [1], in data set [2], in data set [3], in [4], in [5] and in data set [6] was “Compound metabolized” in each case. Also, the “Bacterial Biotransformation” value in [7], in data set [8], in [9], in [10], in data set [11] and in [12] was “Compound metabolized” each time. Besides, the “Bacterial Biotransformation” value in data set [13], in [14], in data set [15], in data set [16], in data set [17] and in data set [18] was “Compound metabolized” each time. In addition, the “Bacterial Biotransformation” value in data set [19] and in [20] was “Compound metabolized” in each case.
For `CC(C)C[C@H]1C(=O)N2CCC[C@H]2[C@]2(O)O[C@](NC(=O)[C@@H]3C=C4c5cccc6[nH]c(Br)c(c56)C[C@H]4N(C)C3)(C(C)C)C(=O)N12.CS(=O)(=O)O` [BROMOCRIPTINE MESYLATE], the “Bacterial Biotransformation” value in [1], in data set [2], in data set [3], in [4], in data set [5] and in data set [6] was “Compound metabolized” throughout. In addition, the “Bacterial Biotransformation” value in data set [7], in data set [8], in [9], in data set [11], in data set [12] and in data set [13] was “Compound metabolized” in each case. The “Bacterial Biotransformation” value in data set [14], in [15], in [16], in data set [17], in data set [18] and in [19] was “Compound metabolized” throughout. Besides, in data set [20], the “Bacterial Biotransformation” value is “Compound metabolized”.
In the case of `CNC(=C[N+](=O)[O-])NCCSCc1csc(CN(C)C)n1` [NIZATIDINE], the “Bacterial Biotransformation” value in data set [1] is reported as “Compound NOT metabolized”; in data set [3], “Compound NOT metabolized”; in [4] it was “Compound metabolized”; in [5], “Compound metabolized”; in data set [6], “Compound metabolized”; in data set [7], “Compound metabolized”. Moreover, the “Bacterial Biotransformation” value in data set [8] was “Compound metabolized”; in [9], “Compound metabolized”; in [10], “Compound metabolized”; in data set [11] it was “Compound NOT metabolized”; in data set [12], “Compound metabolized”; in [13], “Compound metabolized”. Also, the “Bacterial Biotransformation” value in data set [14] is given as “Compound metabolized”; in data set [15], “Compound metabolized”; in [16], “Compound metabolized”; in data set [17] it was “Compound NOT metabolized”; in data set [18] it was “Compound metabolized”; in data set [19], “Compound metabolized”. In addition, the “Bacterial Biotransformation” value in data set [20] is recorded as “Compound metabolized”.
With `CNC(=C[N+](=O)[O-])NCCSCc1ccc(CN(C)C)o1` [RANITIDINE], the “Bacterial Biotransformation” value in data set [1] is recorded as “Compound NOT metabolized”; in data set [3], “Compound NOT metabolized”; in data set [4] it was “Compound metabolized”; in data set [5] it was “Compound metabolized”; in [6], “Compound metabolized”; in data set [7], “Compound metabolized”. Also, the “Bacterial Biotransformation” value is listed as “Compound metabolized” in data set [8]; “Compound metabolized” in data set [9]; “Compound metabolized” in data set [10]; “Compound NOT metabolized” in data set [11]; “Compound metabolized” in data set [12]; “Compound metabolized” in [13]. The “Bacterial Biotransformation” value in [14] is “Compound NOT metabolized”; in data set [15], “Compound metabolized”; in data set [16], “Compound NOT metabolized”; in data set [17], “Compound metabolized”; in [18], “Compound metabolized”; in data set [19], “Compound NOT metabolized”. In addition, the “Bacterial Biotransformation” value in [20] is “Compound metabolized”.
In the case of `COc1ccc2[nH]c([S+]([O-])Cc3ncc(C)c(OC)c3C)nc2n1` (stereo unspecified) [TENATOPRAZOLE], the “Bacterial Biotransformation” value in data set [1], in [2], in data set [3], in data set [4], in data set [5] and in data set [6] was “Compound metabolized” each time. Further, the “Bacterial Biotransformation” value in [7], in [8], in [9], in data set [10], in [11] and in [12] was “Compound metabolized” each time. Moreover, the “Bacterial Biotransformation” value in data set [13], in [14], in [15], in [17], in data set [18] and in data set [19] was “Compound metabolized” in each case. In data set [20], the “Bacterial Biotransformation” value is on record as “Compound metabolized”.

Source of the values: ChEMBL document CHEMBL5303573, “Mapping human microbiome drug metabolism by gut bacteria and their genes” (Nature, 2019).
